Experimental findings from patent publication US20250092058A1 (priority 2018, published 2025) are described below.

Each structure is given as a SMILES string. Read-outs that look alike come from different tables or passages of the source.

In general, IC50 refers to the concentration that inhibits the measured activity by half. Low readings indicate greater potency in that assay, high ones weaker potency in that assay.

The test system of one data set is HepG2. It counts as cell-based, human.
A further data set has as its system A549. In kind it is cell-based, human.
The subject of a further data set is HeLa. It counts as cell-based, human.
Data set [1] relates to HepG2, A549, HeLa, HCT116. The following applies: four cell lines, in words.
Data set [2] deals with HCT116. It counts as cell-based, human.
Another data set concerns HCT116 cells. In words: ROS production, DCFH-DA probe. In kind it is cell-based, human. The following applies: 5-100 nM vs vehicle control. The text has this: Under the influence of pro-apoptotic signals, the elevation of reactive oxygen species (ROS) may serve as a secondary messenger to upregulate the expression of pro-apoptotic proteins, thereby inducing cellular apoptosis.

In the next data set the test system is UMUC-3. The method, then:
(§1) MTT assays. […] Viable cells (2500 cells per well) were plated in each well in 96-well plates. After an overnight incubation, cells were treated with and without relevant drugs alone and in combination, respectively, at various concentrations and incubated for 72 hours. MTT, a colorimetric substrate, was added to a final concentration of 0.4 mg/ml to each well. Cells in 96-well plates were further incubated in a 5% CO2 incubator at 37° C. for 4 hours, and then the medium was aspirated. The MTT metabolic product formazan was solubilized by adding 200 ul of DMSO to each well. Absorbance in the relevant wells was measured at 570 nm using an Ultra Microplate Reader (Bio-Tek Instruments). Each experiment was performed at least in triplicate. IC50/EC50 values were calculated from a series of drug dose ranges for each analyzed compound, using GraphPad Prism 6 (GraphPad Software, Inc., La Jolla, CA).
(§2) The inhibition of cell growth and viability in various cancer cell types were tested using MTT assay for references.

The test system of a further data set is UOK151. The protocol:
as §1, §2

The next data set concerns H1376. The method, then: as §1, §2
The next data set has as its system UOK262. The protocol: as §1, §2
A further data set deals with DDX5-blocked Top1 (Homo sapiens, UniProt P17844). It counts as biochemical. As to conditions: 0.05 μM; DDX5 100 nM; Top1 1 IU. The method, then: Experimental condition: Top1 was used for 1 IU; DDX5 was used in 100 nM; and 1 μg supercoiled pRB322 DNA was used.
DDX5-blocked Top1, sequence (P17844 whole entry): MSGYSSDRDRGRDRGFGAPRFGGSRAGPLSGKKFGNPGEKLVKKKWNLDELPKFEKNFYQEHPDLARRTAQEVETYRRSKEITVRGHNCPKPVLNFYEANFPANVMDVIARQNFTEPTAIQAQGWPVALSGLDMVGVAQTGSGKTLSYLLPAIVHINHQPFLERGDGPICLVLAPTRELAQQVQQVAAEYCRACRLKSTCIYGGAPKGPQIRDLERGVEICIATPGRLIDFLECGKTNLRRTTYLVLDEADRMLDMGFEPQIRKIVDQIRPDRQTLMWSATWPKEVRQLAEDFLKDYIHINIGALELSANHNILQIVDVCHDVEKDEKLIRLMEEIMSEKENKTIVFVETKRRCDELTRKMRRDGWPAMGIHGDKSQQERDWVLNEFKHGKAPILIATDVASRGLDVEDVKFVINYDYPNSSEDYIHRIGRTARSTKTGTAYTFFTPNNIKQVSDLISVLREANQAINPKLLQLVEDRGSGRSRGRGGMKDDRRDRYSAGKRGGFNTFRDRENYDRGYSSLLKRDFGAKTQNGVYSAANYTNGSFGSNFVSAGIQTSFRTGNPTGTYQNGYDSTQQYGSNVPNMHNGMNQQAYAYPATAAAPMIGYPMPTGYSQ
For the next data set, the target named is Top1 (Homo sapiens, UniProt P11387). It counts as biochemical.
Top1, sequence (P11387 whole entry, species assumed): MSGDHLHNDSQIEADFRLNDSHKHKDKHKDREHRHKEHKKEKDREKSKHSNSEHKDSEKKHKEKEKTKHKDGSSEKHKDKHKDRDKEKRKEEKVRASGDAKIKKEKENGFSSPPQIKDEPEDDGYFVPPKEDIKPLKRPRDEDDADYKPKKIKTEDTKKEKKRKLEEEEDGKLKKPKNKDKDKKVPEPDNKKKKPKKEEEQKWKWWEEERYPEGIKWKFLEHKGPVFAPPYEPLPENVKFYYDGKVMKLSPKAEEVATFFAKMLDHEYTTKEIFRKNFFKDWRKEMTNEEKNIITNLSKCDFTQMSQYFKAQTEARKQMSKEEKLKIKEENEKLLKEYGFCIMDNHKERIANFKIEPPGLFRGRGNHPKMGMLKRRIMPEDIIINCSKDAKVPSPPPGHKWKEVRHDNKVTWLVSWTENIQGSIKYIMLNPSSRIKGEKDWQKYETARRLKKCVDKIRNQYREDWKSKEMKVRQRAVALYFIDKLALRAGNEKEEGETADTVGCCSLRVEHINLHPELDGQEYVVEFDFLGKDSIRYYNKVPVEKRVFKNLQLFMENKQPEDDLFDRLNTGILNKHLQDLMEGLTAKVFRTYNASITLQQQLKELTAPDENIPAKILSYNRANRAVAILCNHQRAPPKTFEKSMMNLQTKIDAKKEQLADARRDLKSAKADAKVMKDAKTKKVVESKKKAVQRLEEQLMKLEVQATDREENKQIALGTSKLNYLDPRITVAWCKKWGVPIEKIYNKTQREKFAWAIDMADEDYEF
Another data set has as its system Y79. Put plainly: MTT assay Y79. In kind it is cell-based. As to conditions: Table 7. The method, then:
(§3) MTT assays. […] Each experiment was performed at least in triplicate.
(Tetrazolium assays rely on reduction of a dye to a coloured formazan, in cell work by metabolically active cells.)

The next data set relates to T24. In words: MTT assay T24. It counts as cell-based. As to conditions: Table 5 lower part; T24 bladder cancer. The protocol:
as §1, §2

A further data set has as its system Wer 127. Put plainly: MTT assay Wer 127. It counts as cell-based. The following applies: Table 7. The protocol: as §3
For another data set, the system named is RT4. In words: MTT assay RT4. As to conditions: Table 5 lower part; RT4 bladder cancer. It counts as cell-based. The method, then: as §1, §2
In another data set the test system is HT-3. Put plainly: MTT assay HT-3. It counts as cell-based, human. As to conditions: Table 7; HT-3. The procedure, abridged:
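Viability after 72 h compound exposure, alone or combined, was scored by MTT (0.4 mg/ml final, 4 h) with A570 measured on DMSO-dissolved formazan.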

Data set [3] has as its system HCT116. In words: MTT assay HCT116. In kind it is cell-based, human. The protocol: as §3

Take `CC[C@@]1(O)C(=O)OCc2c1cc1n(c2=O)Cc2c-1nc1cc3c(cc1c2-c1ccc(F)cc1)OCO3` [Compound 7b]: the IC50 with HepG2 stood at 0.0463 ± 0.0054 µM; in the data set with A549 it was 0.0198 ± 0.0029 µM; in the data set with HeLa, 0.0111 ± 0.0067 µM; in the data set with HCT116 [2] it was 0.0327 ± 0.0033 µM. The “cytotoxic / anti-proliferation ability” value in data set [1] is on record as “good anti-proliferation ability in all four cell lines”.
Take `CC[C@@]1(O)C(=O)OCc2c1cc1n(c2=O)Cc2c-1nc1cc3c(cc1c2-c1ccc(F)c(OC)c1)OCO3` [Compound 7h]: the ROS production entry with HCT116 cells is “significantly increased”.
For the molecule `CCc1c2c(nc3ccc(O)cc13)-c1cc3c(c(=O)n1C2)COC(=O)[C@]3(O)CC` [SN38, reference compound], the IC50 worked out at 0.2684 ± 0.0006 µM in the data set with HepG2 (Table 13, MTT, HepG2 liver cancer); 0.475 ± 0.009 µM in the data set on A549 (Table 13, MTT, A549 lung cancer); 0.234 ± 0.0052 µM with HeLa (Table 13, MTT, HeLa cervical cancer); 0.3669 ± 0.0033 µM with HCT116 [2] (Table 13, MTT, HCT116 colorectal cancer). In addition, the IC50/EC50 was 0.0082 µM in the data set on UMUC-3 (Table 5 lower part, UMUC-3 bladder cancer); 0.0082 µM in the data set on UMUC-3 (Table 8, UMUC-3); above 0.5 µM in the data set on UOK151 (Table 5 lower part, UOK151 kidney cancer); above 0.5 µM with UOK151 (Table 8, UOK151); above 0.5 µM with UOK151 (Table 10, UOK151); above 0.5 µM in the data set with H1376 (Table 5 lower part, H1376 bladder cancer). Moreover, the IC50/EC50 with H1376 (Table 8, H1376) was above 0.5 µM; in the data set on UOK262 (Table 5 lower part, UOK262 kidney cancer), 0.0338 µM; in the data set on UOK262 (Table 8, UOK262), 0.0338 µM; in the data set with UOK262 (Table 10, UOK262), 0.0338 µM; with Y79 it was 0.00525 µM; with T24, 0.00232 µM. Further, the IC50/EC50 in the data set on Wer 127 is 0.00685 µM; in the data set on RT4, 0.0176 µM; in the data set with HT-3, 0.018 µM; in the data set with HCT116 [3] (Table 7), 0.6198 µM; with HCT116 [3] (Table 8), 0.6198 µM. Besides, on DDX5-blocked Top1, the “unblocking of DDX5-blocked Top1 activity” value is “cannot”. Further, at Top1, the “concentrations blocking Top1 nicking SC DNA activity” value was “could only be blocked by 5 and 50 μM”.
